ChEMBL document CHEMBL6092159, “Design, synthesis, and biological evaluation of novel iNOS inhibitors as potent neuroprotective agents for ischemic stroke” (Eur J Med Chem, 2024)
Values after ≈ are worked out from the molar mass of the structure shown. Active and inactive are the calls of the source. The rule behind the calls is not given here.

Assays:
[1] = Half life in Sprague-Dawley rat at 10 mg/kg, iv measured after 24 hrs by LC-MS/MS analysis; format: ADME, organism-based; conditions: in vivo
[2] = Tmax in Sprague-Dawley rat at 10 mg/kg, iv measured after 24 hrs by LC-MS/MS analysis; format: ADME, organism-based; conditions: in vivo
[3] = Apparent volume of distribution in Sprague-Dawley rat at 10 mg/kg, iv measured after 24 hrs by LC-MS/MS analysis; format: ADME, organism-based; conditions: in vivo, read-out: Vz
[4] = Clearance in Sprague-Dawley rat at 10 mg/kg, iv measured after 24 hrs by LC-MS/MS analysis; format: ADME, organism-based; conditions: in vivo
[5] = MRT (0 to t) in Sprague-Dawley rat at 10 mg/kg, iv measured after 24 hrs by LC-MS/MS analysis; format: ADME, organism-based; conditions: in vivo
[6] = MRT (0 to infinity) in Sprague-Dawley rat at 10 mg/kg, iv measured after 24 hrs by LC-MS/MS analysis; format: ADME, organism-based; conditions: in vivo
SH-SY5Y [7] = assay: Neuroprotective effect in human SH-SY5Y cells assessed as reduction in OGD/R-induced damage by measuring increase in cell viability at 10 uM incubated for 3 hrs followed by washout cells cultured in glucose and FBS-free medium measured after 24 hrs by CCK8 assay; format: functional, cell-based
SH-SY5Y [8] = assay: Neuroprotective effect in human SH-SY5Y cells assessed as reduction in OGD/R-induced damage by measuring increase in cell viability at 1 uM incubated for 3 hrs followed by washout cells cultured in glucose and FBS-free medium measured after 24 hrs by CCK8 assay; format: functional, cell-based
BV-2 = assay: Neuroprotective effect in mouse BV-2 cells assessed as reduction in OGD/R-induced damage by measuring increase in cell viability at 10 uM incubated for 3 hrs followed by washout cells cultured in glucose and FBS-free medium measured after 24 hrs by CCK8 assay; format: functional, cell-based
SH-SY5Y [9] = assay: Antioxidant activity in human SH-SY5Y cells assessed as reduction in OGD/R-induced ROS level at 1 uM incubated for 3 hrs followed by washout cells cultured in glucose and FBS-free medium measured after 24 hrs by DCFH-DA probe based fluorescence microscopy assay; format: functional, cell-based
SH-SY5Y [10] = assay: Antioxidant activity in human SH-SY5Y cells assessed as reduction in OGD/R-induced LDH level at 1 uM incubated for 3 hrs followed by washout cells cultured in glucose and FBS-free medium measured after 24 hrs by colorimetric assay; format: functional, cell-based
SH-SY5Y [11] = assay: […] effect in human SH-SY5Y cells assessed as reduction in OGD/R-induced caspase-3 activity using substrate GreenNuc Caspase-3 Substrate is a peptide DEVD coupled with a DNA green fluorescent dye at 1 uM incubated for 3 hrs followed by washout cells cultured in glucose and FBS-free medium measured after 24 hrs by […] assay; format: functional, cell-based
[12] = biological target: Nitric oxide synthase, inducible (Homo sapiens, UniProt P35228); assay: Inhibition of iNOS (unknown origin) assessed as nitric oxide production at 1 uM by hemoglobin capture assay
[13] = biological target: T1, Nitric oxide synthase 3 (Homo sapiens) (UniProt P29474); assay: Inhibition of eNOS (unknown origin) assessed as nitric oxide production 1 uM by hemoglobin capture assay
T1 sequence (whole entry): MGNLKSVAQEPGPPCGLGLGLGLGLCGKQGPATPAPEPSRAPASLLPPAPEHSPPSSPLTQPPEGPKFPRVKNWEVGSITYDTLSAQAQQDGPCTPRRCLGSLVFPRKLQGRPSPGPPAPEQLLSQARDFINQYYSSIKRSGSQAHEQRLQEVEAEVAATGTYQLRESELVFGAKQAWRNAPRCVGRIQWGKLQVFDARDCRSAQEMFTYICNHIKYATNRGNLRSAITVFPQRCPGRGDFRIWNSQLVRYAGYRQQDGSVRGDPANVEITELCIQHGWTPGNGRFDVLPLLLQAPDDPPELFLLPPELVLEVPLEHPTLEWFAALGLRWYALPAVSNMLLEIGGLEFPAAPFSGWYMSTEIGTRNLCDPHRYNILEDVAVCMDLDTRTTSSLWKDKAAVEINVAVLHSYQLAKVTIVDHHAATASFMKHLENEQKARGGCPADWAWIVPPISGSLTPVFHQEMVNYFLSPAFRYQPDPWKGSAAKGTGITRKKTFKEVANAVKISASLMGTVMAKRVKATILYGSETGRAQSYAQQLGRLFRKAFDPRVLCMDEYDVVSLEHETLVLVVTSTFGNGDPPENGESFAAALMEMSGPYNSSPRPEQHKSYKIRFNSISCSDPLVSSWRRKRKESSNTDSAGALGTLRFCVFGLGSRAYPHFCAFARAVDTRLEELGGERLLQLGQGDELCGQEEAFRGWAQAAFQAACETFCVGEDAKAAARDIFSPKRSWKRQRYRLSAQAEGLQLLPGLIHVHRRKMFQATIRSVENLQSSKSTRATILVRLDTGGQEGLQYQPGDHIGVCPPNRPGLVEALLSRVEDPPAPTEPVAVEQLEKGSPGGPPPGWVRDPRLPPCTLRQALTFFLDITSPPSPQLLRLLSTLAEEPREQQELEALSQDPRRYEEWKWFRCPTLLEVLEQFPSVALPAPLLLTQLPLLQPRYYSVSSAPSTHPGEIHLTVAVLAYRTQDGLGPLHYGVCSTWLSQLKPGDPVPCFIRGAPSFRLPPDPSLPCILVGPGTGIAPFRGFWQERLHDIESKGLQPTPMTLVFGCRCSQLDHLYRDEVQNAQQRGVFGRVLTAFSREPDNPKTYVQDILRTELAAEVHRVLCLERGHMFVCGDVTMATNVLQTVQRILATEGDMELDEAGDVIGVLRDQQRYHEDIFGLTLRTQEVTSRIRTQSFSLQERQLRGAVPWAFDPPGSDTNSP

[14] = biological target: Nitric oxide synthase 1 (Homo sapiens) (UniProt P29475); assay: Inhibition of nNOS (unknown origin) assessed as nitric oxide production 1 uM by hemoglobin capture assay
[15] = Stability in rat plasma assessed as half life; format: ADME, cell-free
[16] = Metabolic stability in rat liver microsomes assessed as half life; format: ADME, Microsome
[17] = Solubility of the compound by HPLC based dissolution test; format: physicochemical
[18] = Ratio of drug concentration male Sprague-Dawley rat brain to blood at 5 mg/kg, iv measured after 24 hrs by LC-MS/MS analysis; format: ADME, organism-based
Rattus norvegicus [19] = assay: Anti-cerebral ischemia activity in rat tMCAO (transient middle cerebral artery occlusion) model assessed as reduction in cerebral infarct area at 9.61 mg/kg, iv treated after 2 hrs ischemia followed by reperfusion measured after 24 hrs of post-reperfusion by single-dose experiment; format: functional, organism-based; conditions: time 26.0 hrs
Rattus norvegicus [20] = assay: Anti-cerebral ischemia activity in rat tMCAO (transient middle cerebral artery occlusion) model assessed as reduction in cerebral infarct area at 9.61 mg/kg, iv treated after 2 hrs ischemia followed by reperfusion measured after 24 to 72 hrs of post-reperfusion by TTC staining based multiple-dose experiment; format: functional, organism-based; conditions: time 26-74 hrs
Rattus norvegicus [21] = assay: Anti-cerebral ischemia activity in rat tMCAO (transient middle cerebral artery occlusion) model assessed as reduction in cerebral infarct area at 9.61 mg/kg, iv treated after 2 hrs ischemia followed by reperfusion measured after 24 hrs of post-reperfusion by measuring modified neurological severity score (mNSS) test based multiple-dose experiment relative to MCAO group; format: functional, organism-based
Rattus norvegicus [22] = assay: Anti-cerebral ischemia activity in rat tMCAO (transient middle cerebral artery occlusion) model assessed as reduction in cerebral infarct area at 9.61 mg/kg, iv treated after 2 hrs ischemia followed by reperfusion measured after 24 hrs of post-reperfusion by measuring turn left counts test based multiple-dose experiment relative to MCAO group; format: functional, organism-based
Rattus norvegicus [23] = assay: Anti-cerebral ischemia activity in rat tMCAO (transient middle cerebral artery occlusion) model assessed as reduction in cerebral infarct area at 9.61 mg/kg, iv treated after 2 hrs ischemia followed by reperfusion measured after 72 hrs of post-reperfusion by measuring modified neurological severity score (mNSS) test based multiple-dose experiment relative to MCAO group; format: functional, organism-based
Rattus norvegicus [24] = assay: Anti-cerebral ischemia activity in rat tMCAO (transient middle cerebral artery occlusion) model assessed as reduction in cerebral infarct area at 9.61 mg/kg, iv treated after 2 hrs ischemia followed by reperfusion measured after 72 hrs of post-reperfusion by measuring turn left counts test based multiple-dose experiment relative to MCAO group; format: functional, organism-based
[25] = Ratio of drug concentration male Sprague-Dawley rat brain to blood at 3.4 mg/kg, iv measured after 24 hrs by LC-MS/MS analysis; format: ADME, organism-based
Rattus norvegicus [26] = assay: Anti-cerebral ischemia activity in rat tMCAO (transient middle cerebral artery occlusion) model assessed as reduction in cerebral infarct area at 6.58 mg/kg, iv treated after 2 hrs ischemia followed by reperfusion measured after 24 hrs of post-reperfusion by single-dose experiment; format: functional, organism-based; conditions: time 26.0 hrs
Rattus norvegicus [27] = assay: Anti-cerebral ischemia activity in rat tMCAO (transient middle cerebral artery occlusion) model assessed as reduction in cerebral infarct area in presence of NBP at 6.58 mg/kg, iv treated after 2 hrs ischemia followed by reperfusion measured after 24 hrs of post-reperfusion by single-dose experiment; format: functional, organism-based; conditions: time 26.0 hrs
Rattus norvegicus [28] = assay: Anti-cerebral ischemia activity in rat tMCAO (transient middle cerebral artery occlusion) model assessed as reduction in cerebral infarct area at 9.98 mg/kg, iv treated after 2 hrs ischemia followed by reperfusion measured after 24 hrs of post-reperfusion by single-dose experiment; format: functional, organism-based; conditions: time 26.0 hrs
Rattus norvegicus [29] = assay: Anti-cerebral ischemia activity in rat tMCAO (transient middle cerebral artery occlusion) model assessed as reduction in cerebral infarct area at 5 mg/kg, iv treated after 2 hrs ischemia followed by reperfusion measured after 24 hrs of post-reperfusion by single-dose experiment; format: functional, organism-based; conditions: time 26.0 hrs
Rattus norvegicus [30] = assay: Anti-cerebral ischemia activity in rat tMCAO (transient middle cerebral artery occlusion) model assessed as reduction in cerebral infarct area in presence of 1400W at 5 mg/kg, iv treated after 2 hrs ischemia followed by reperfusion measured after 24 hrs of post-reperfusion by single-dose experiment; format: functional, organism-based; conditions: time 26.0 hrs
Rattus norvegicus [31] = assay: Anti-cerebral ischemia activity in rat tMCAO (transient middle cerebral artery occlusion) model assessed as reduction in cerebral infarct area at 5 mg/kg, iv treated after 2 hrs ischemia followed by reperfusion measured after 24 to 72 hrs of post-reperfusion by TTC staining based multiple-dose experiment; format: functional, organism-based; conditions: time 26-74 hrs

Sequence of Nitric oxide synthase, inducible (P35228 whole entry): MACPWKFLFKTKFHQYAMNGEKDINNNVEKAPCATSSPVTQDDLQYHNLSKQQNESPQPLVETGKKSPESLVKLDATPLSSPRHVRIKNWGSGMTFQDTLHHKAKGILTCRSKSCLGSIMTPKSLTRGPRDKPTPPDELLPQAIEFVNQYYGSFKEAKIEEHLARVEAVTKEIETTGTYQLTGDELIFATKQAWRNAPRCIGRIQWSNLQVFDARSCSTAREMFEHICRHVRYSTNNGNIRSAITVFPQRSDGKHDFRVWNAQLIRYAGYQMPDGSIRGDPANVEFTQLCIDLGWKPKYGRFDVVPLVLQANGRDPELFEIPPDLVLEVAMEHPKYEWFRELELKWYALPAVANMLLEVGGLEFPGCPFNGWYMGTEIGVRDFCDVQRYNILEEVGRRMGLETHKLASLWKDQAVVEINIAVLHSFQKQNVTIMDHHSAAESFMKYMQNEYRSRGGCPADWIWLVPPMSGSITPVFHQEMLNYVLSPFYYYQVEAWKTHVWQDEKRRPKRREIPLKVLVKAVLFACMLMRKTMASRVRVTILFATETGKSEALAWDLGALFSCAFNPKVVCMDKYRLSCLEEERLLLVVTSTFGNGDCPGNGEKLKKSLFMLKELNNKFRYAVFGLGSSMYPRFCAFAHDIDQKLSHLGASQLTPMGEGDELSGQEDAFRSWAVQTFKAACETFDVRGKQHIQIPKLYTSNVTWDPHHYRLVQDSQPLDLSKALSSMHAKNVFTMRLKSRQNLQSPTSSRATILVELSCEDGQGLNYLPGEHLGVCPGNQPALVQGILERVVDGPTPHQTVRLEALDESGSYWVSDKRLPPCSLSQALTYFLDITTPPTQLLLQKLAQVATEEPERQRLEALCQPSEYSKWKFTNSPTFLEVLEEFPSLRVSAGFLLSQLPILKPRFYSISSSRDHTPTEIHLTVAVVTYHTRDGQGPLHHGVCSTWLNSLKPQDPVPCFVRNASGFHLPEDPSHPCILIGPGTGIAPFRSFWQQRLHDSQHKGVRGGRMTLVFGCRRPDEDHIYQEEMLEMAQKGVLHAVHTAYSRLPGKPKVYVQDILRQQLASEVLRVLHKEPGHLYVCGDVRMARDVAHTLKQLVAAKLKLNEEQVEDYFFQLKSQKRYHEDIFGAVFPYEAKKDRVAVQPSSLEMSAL
Sequence of Nitric oxide synthase 1 (Homo sapiens) (P29475 whole entry): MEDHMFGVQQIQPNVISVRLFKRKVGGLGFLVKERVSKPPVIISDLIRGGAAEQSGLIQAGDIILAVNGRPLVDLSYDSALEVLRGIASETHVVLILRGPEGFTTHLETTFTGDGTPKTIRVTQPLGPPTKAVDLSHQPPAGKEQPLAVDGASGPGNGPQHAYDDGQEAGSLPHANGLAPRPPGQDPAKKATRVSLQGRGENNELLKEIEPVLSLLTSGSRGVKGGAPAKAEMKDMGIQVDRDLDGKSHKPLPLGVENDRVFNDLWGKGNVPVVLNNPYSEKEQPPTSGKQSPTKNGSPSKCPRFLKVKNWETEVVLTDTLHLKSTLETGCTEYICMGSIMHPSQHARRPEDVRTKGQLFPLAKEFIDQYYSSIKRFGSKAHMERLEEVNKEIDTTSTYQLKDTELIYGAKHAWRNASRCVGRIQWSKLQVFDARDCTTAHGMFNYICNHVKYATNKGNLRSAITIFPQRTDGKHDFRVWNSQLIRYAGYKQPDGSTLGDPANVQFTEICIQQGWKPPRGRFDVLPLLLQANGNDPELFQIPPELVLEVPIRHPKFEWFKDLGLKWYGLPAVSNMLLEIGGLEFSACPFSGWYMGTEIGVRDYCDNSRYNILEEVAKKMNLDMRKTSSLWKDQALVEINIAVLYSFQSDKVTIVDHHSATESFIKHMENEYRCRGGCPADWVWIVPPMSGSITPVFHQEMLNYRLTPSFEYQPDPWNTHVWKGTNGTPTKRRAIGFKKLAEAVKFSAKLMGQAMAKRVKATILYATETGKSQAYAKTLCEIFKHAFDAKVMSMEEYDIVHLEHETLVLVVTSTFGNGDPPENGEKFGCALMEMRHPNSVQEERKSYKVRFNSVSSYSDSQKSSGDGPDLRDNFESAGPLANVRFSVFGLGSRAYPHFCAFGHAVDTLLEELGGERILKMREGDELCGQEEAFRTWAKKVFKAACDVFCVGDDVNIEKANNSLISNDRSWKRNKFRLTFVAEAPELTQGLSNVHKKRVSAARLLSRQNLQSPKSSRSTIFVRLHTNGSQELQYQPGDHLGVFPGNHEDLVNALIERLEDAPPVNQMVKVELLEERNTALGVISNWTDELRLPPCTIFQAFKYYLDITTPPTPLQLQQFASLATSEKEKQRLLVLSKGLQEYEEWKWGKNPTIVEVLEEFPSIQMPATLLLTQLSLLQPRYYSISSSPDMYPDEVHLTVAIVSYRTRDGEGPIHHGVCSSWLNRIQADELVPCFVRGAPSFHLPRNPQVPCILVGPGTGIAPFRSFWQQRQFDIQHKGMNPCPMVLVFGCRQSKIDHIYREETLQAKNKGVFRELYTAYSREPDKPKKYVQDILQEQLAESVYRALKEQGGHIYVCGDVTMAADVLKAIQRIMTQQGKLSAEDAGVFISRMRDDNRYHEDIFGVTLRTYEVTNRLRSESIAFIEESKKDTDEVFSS

| Compound | Tmax [2] [min] | Vd [3] [L/kg] | CL [4] [L/h/kg] | MRT last at 24 h [5] [h] | MRT inf [6] [h] | Activity (SH-SY5Y [7]) | Activity (SH-SY5Y [8]) | Activity (BV-2) | Activity (SH-SY5Y [9]) | Activity (SH-SY5Y [10]) | Activity (SH-SY5Y [11]) | IC50 [12] [µM] | Activity [13] | solubility [17] [mg/mL] | other results |
| --- | --- | --- | --- | --- | --- | --- | --- | --- | --- | --- | --- | --- | --- | --- | --- |
| CCCCC1OC(=O)c2cc(NCc3cccc(CNC(C)=N)c3)ccc21 (centres undefined) | 4.98 | 32.4 | 4.28 | 1.62 | 1.91 | Active | Active; Compound Demonstrating Comparable Protective Effects To Nbp And 1400W | Active; Compound Exhibit Similar Protective Effects As Nbp And 1400W | Active | Active | Active | 0.171 | inactive | 30 (≈ 82.1 mM) | half-life [1]: 5.21 h; inhibition [14]: 3.64%; half-life [15]: 23 h; half-life [16]: 2 h; BBR [18]: 27.36%; Activity (Rattus norvegicus [19]): Active; Activity (Rattus norvegicus [20]): Active; Efficacy Of Compound Superior Than Nbp Group; Activity (Rattus norvegicus [21]): Active; Activity (Rattus norvegicus [22]): Active; Activity (Rattus norvegicus [23]): Active; Activity (Rattus norvegicus [24]): Active |
| CC(=N)NCc1cccc(CN)c1 [1400W] | 4.98 | 21.7 | 5.407 | 0.96 | 1.11 |  |  |  | Active | Active | Active |  | inactive |  | BBR [25]: 10.96%; Activity (Rattus norvegicus [26]): Active; Activity (Rattus norvegicus [27]): Active |
| CCCCC1OC(=O)c2cc(NCc3cccc(NC(C)=N)c3)ccc21 (centres undefined) |  |  |  |  |  | Active |  |  |  |  |  | 0.275 |  |  |  |
| CCCCC1OC(=O)c2cc(NC(=O)c3cccc(NC(C)=N)c3)ccc21 (centres undefined) |  |  |  |  |  | Active |  |  |  |  |  | 0.474 |  |  |  |
| CCCCC1OC(=O)c2cc(NC(=O)c3cccc(CNC(C)=N)c3)ccc21 (centres undefined) |  |  |  |  |  | Active | Active; Compound Demonstrating Comparable Protective Effects To Nbp And 1400W | Active; Compound Exhibit Similar Protective Effects As Nbp And 1400W |  | Active |  | 0.245 |  |  | Activity (Rattus norvegicus [28]): Active |
| CCCCC1OC(=O)c2ccccc21 (racemic) [RAC-3-N-BUTYLPHTHALIDE] |  |  |  |  |  |  |  |  | Active | Active | Active |  |  | 0.25 (≈ 1.31 mM) | Activity (Rattus norvegicus [29]): Active; Activity (Rattus norvegicus [30]): Active; Activity (Rattus norvegicus [31]): Active |
